Each structure is given as a SMILES string. Structures can show the parent of a compound that is named as a salt.

Experiment [1] has as its target T1, SYK (Homo sapiens, UniProt P43405).
T1 construct: Recombinant proteins SYK FL was produced at NMS via baculo virus infection in insect cells; His; GST; made in house; host or cells: insect cells (baculovirus)
Put plainly: Biochemical kinase inhibition assay on SYK, KinaseGlo assay format. The conditions noted are these: read-out: IC50 (μM) Kglo.

Experiment [2] addresses T1, SYK. Put plainly: Biochemical kinase inhibition assay on SYK, ADPGlo assay format. The conditions noted are these: Table A, pre-activated SYK 0.6 nM, ATP 60 μM, BioDBn*327 125 μM, 60 minutes at room temperature. Background: ADP-Glo first removes unused ATP, then detects ADP through luciferase.
Where [3] appears, read: Table A, KinaseGlo format, pre-activated SYK 2.5 nM, ATP 2.5 μM, substrate BioDBn*327 125 uM, 60 minutes at rt.
The mark [4] stands for this setting: Table B, reference compounds of WO2012/139930, KinaseGlo format on Syk.

By IC50 is commonly meant the concentration that inhibits the measured activity by half. Turning to `COc1cc(F)cc(Nc2nccc(-c3cc(C(=O)N[C@@H](C)CN4CCC4)n(C)n3)n2)c1` [Example 48, N-[(2S)-1-(azetidin-1-yl)propan-2-yl]-3-{2-[(3-fluoro-5-methoxyphenyl)amino]pyrimidin-4-yl}-1-methyl-1H-pyrazole-5-carboxamide], the IC50 at SYK [1] (setting [3]) came out at 0.006 µM; against SYK [2] it was 0.023 µM.

Regarding `COc1cc(F)cc(Nc2nccc(-c3cc(C(=O)N[C@@H](C)CN(C)C)n(C)n3)n2)c1` [Example 65, N-[(2S)-1-(dimethylamino)propan-2-yl]-3-{2-[(3-fluoro-5-methoxyphenyl)amino]pyrimidin-4-yl}-1-methyl-1H-pyrazole-5-carboxamide], the half-maximal inhibitory concentration (IC50) at SYK [1] (setting [3]) was 0.009 µM; on SYK [2] it was 0.038 µM.

As for `COc1cc(Nc2nccc(-c3cc(C(=O)N[C@@H](C)CN(C)C)n(C)n3)n2)cc(OC)c1` [Example 67, 3-{2-[(3,5-dimethoxyphenyl)amino]pyrimidin-4-yl}-N-[(2S)-1-(dimethylamino)propan-2-yl]-1-methyl-1H-pyrazole-5-carboxamide], the IC50 was below 0.004 µM on SYK [1] (setting [3]) and 0.014 µM against SYK [2].

Regarding `COc1cc(Nc2nccc(-c3cc(C(=O)N[C@@H](C)CN4CCCC4)n(C)n3)n2)cc(OC)c1` [Example 69, 3-{2-[(3,5-dimethoxyphenyl)amino]pyrimidin-4-yl}-1-methyl-N-[(2S)-1-(pyrrolidin-1-yl)propan-2-yl]-1H-pyrazole-5-carboxamide], the IC50 on SYK [1] (setting [3]) amounted to 0.008 µM; on SYK [2], 0.01 µM.

With `COc1cc(Nc2nccc(-c3cc(C(=O)NCCN(C)C)n(C)n3)n2)cc(OC)c1` [Example 72, 3-{2-[(3,5-dimethoxyphenyl)amino]pyrimidin-4-yl}-N-[2-(dimethylamino)ethyl]-1-methyl-1H-pyrazole-5-carboxamide], the IC50 was 0.034 µM at SYK [1] (setting [3]) and 0.087 µM against SYK [2].

For the compound `C[C@@H](CN(C)C)NC(=O)c1cc(-c2ccnc(Nc3cnn(C)c3)n2)nn1C` [Example 75, N-[(2S)-1-(dimethylamino)propan-2-yl]-1-methyl-3-{2-[(1-methyl-1H-pyrazol-4-yl)amino]pyrimidin-4-yl}-1H-pyrazole-5-carboxamide], the values for the IC50 on SYK [1] (setting [3]) and on SYK [2] were 0.273 µM and 0.473 µM, respectively.

Turning to `COc1cc(C#N)cc(Nc2nccc(-c3cc(C(=O)N[C@@H](C)CN(C)C)n(C)n3)n2)c1` [Example 78, 3-{2-[(3-cyano-5-methoxyphenyl)amino]pyrimidin-4-yl}-N-[(2S)-1-(dimethylamino)propan-2-yl]-1-methyl-1H-pyrazole-5-carboxamide], the figures for the half-inhibitory concentration (IC50) at SYK [1] (setting [3]) and on SYK [2] were 0.015 µM and 0.033 µM, respectively.

As for `COc1cc(C#N)cc(Nc2nccc(-c3cc(C(=O)N[C@@H](C)CN4CCC4)n(C)n3)n2)c1` [Example 79, N-[(2S)-1-(azetidin-1-yl)propan-2-yl]-3-{2-[(3-cyano-5-methoxyphenyl)amino]pyrimidin-4-yl}-1-methyl-1H-pyrazole-5-carboxamide], the IC50 at SYK [1] (setting [3]) is 0.007 µM; at SYK [2] it was 0.026 µM.

Turning to `COc1cncc(Nc2nccc(-c3cc(C(=O)N[C@@H](C)CN4CCC4)n(C)n3)n2)c1` [Example 80, N-[(2S)-1-(azetidin-1-yl)propan-2-yl]-3-{2-[(5-methoxypyridin-3-yl)amino]pyrimidin-4-yl}-1-methyl-1H-pyrazole-5-carboxamide], the half-maximal inhibitory concentration (IC50) came to 0.044 µM at SYK [1] (setting [3]) and 0.081 µM at SYK [2].

On to `CC(C)[C@@H](CN1CCCC1)NC(=O)c1cc(-c2ccnc(Nc3cc(Cl)cc(Cl)c3)n2)nn1C` [Example 117, 3-{2-[(3,5-dichlorophenyl)amino]pyrimidin-4-yl}-1-methyl-N-[(2S)-3-methyl-1-(pyrrolidin-1-yl)butan-2-yl]-1H-pyrazole-5-carboxamide], for which the 50% inhibitory concentration (IC50) at SYK [1] (setting [3]) was 0.007 µM.

Turning to `Cc1cc(C)cc(Nc2nccc(-c3cc(C(=O)N[C@H]4CCCC[C@@H]4O)n(C)n3)n2)c1` [Example 118, 3-{2-[(3,5-dimethylphenyl)amino]pyrimidin-4-yl}-N-[(1S,2S)-2-hydroxycyclohexyl]-1-methyl-1H-pyrazole-5-carboxamide], the half-maximal inhibitory concentration (IC50) at SYK [1] (setting [3]) came to 0.045 µM.

For the compound `CCn1nc(-c2ccnc(Nc3cc(C)cc(C)c3)n2)cc1C(=O)N[C@H]1CCCC[C@H]1O` [Example 120, 3-{2-[(3,5-dimethylphenyl)amino]pyrimidin-4-yl}-1-ethyl-N-[(1S,2R)-2-hydroxycyclohexyl]-1H-pyrazole-5-carboxamide], the half-inhibitory concentration (IC50) on SYK [1] (setting [3]) amounted to 0.027 µM.

As to `CCn1nc(-c2ccnc(Nc3cc(C)cc(C)c3)n2)cc1C(=O)N[C@H]1CCCC[C@H]1N` [Example 121, N-[(1S,2R)-2-aminocyclohexyl]-3-{2-[(3,5-dimethylphenyl)amino]pyrimidin-4-yl}-1-ethyl-1H-pyrazole-5-carboxamide hydrochloride], on SYK [1] (setting [3]), the IC50 was 0.012 µM.

In the case of `CCn1nc(-c2ccnc(Nc3cc(C)cc(C)c3)n2)cc1C(=O)N[C@@H]1CCCNC1` [Example 122, 3-{2-[(3,5-dimethylphenyl)amino]pyrimidin-4-yl}-1-ethyl-N-[(3R)-piperidin-3-yl]-1H-pyrazole-5-carboxamide hydrochloride], the concentration for half-maximal inhibition (IC50) at SYK [1] (setting [3]) was 0.06 µM.

As to `CCc1cccc(CC)c1NC(=O)c1cc(-c2ccnc(Nc3ccccc3OC)n2)n(C)n1` [compound 7, reference compound], the IC50 on SYK [1] (setting [4]) was above 10 µM.

As to `CCc1cccc(CC)c1NC(=O)c1cc(-c2ccnc(Nc3ccccc3OC)n2)[nH]n1` [compound 14, reference compound], the IC50 on SYK [1] (setting [4]) is above 10 µM.

With `CNC(=O)c1cc(-c2ccnc(N(C)C)n2)n(C(C)(C)C)n1` [compound 39, reference compound], the concentration for half-maximal inhibition (IC50) at SYK [1] (setting [4]) is above 10 µM.

The record behind these values is patent US20240285621A1, “PYRAZOLYL-PYRIMIDINE DERIVATIVES AS KINASE INHIBITORS” (NERVIANO MEDICAL SCIENCES S.R.L., priority 2020, published 2024).
